# “Also recorded” adds a separate entry of the source. Peptide text beside a SMILES is read from it.
# Test system: binary FGFR-Klotho complexes (FGFR1c, FGFR3c, or FGFR4)
# Assay: Co-immunoprecipitation based competition assay, HEK293-Klotho lysates
# Format: binding
# From the text: Co-immunoprecipitation may also be used to determine that an agent specifically binds the binary FGFR-Klotho complex. One aspect of the present invention utilizes co-immunoprecipitation studies. Subconfluent cultures of a HEK293 cell line ectopically expressing the FLAG-tagged membrane-spanning form of murine Klotho were transfected with expression vectors for V5-tagged FGFR1c, FGFR3c, or FGFR4. Two days later, the cells were lysed, and FGFR-Klotho complexes were isolated from cell lysate using anti-V5 agarose beads. The beads were then incubated with either FGF23^180-251 or FGF23^28-251 alone, or with mixtures of FGF23^28-251 with either increasing FGF23^180-251 or increasing FGF23^180-205. Bead-bound proteins were resolved on SDS-polyacrylamide gels, transferred to nitrocellulose membranes, and labeled using antibodies to Klotho, FGF23, and V5 epitope tag.
# In parallel, subconfluent HEK293-Klotho cells (Kurosu et al., “Regulation of Fibroblast Growth Factor-23 Signaling by Klotho,” J Biol Chem 281(10):6120-6123 (2006), which is hereby incorporated by reference in its entirety) were transfected with expression vectors for V5-tagged FGFR1c, FGFR3c, or FGFR4 (Kurosu et al., “Regulation of Fibroblast Growth Factor-23 Signaling by Klotho,” J Biol Chem 281(10):6120-6123 (2006), which is hereby incorporated by reference in its entirety) and binding of FGF23 proteins/peptides to Klotho-FGFR complexes isolated from cell lysate was analyzed. Two days later, the cells were lysed (Kurosu et al, “Suppression of Aging in Mice by the Hormone Klotho,” Science 309(5742):1829-1833 (2005), which is hereby incorporated by reference in its entirety), and FGFR-Klotho complexes were isolated from cell lysate using anti-V5 agarose beads (Sigma-Aldrich) (Kurosu et al., “Regulation of Fibroblast Growth Factor-23 Signaling by Klotho,” J Biol Chem 281(10):6120-6123 (2006), which is hereby incorporated by reference in its entirety). The beads were then incubated with either FGF23^180-251 (1 nM) or FGF23^28-251 (1 nM) alone, or with mixtures of FGF23^28-251 (1 nM) with either increasing FGF23^180-251 (2 to 76 nM) or increasing FGF23^180-205 (0.1 to 10 μM). Bead-bound proteins were resolved on SDS-polyacrylamide gels, transferred to nitrocellulose membranes, and labeled using antibodies to Klotho (KM2119, (Kato et al., “Establishment of the Anti-Klotho Monoclonal Antibodies and Detection of Klotho Protein in Kidneys,” Biochemical Biophysical Res Communications 267(2):597-602 (2000), which is hereby incorporated by reference in its entirety)), FGF23 (R&D systems), and V5 epitope tag (Invitrogen).
# [1] = co-immunoprecipitation competition
Molecule,inhibition of binding (co-precipitation) of FGF23^28-251 with binary FGFR-Klotho complexes [1],reduced potency compared to the FGF23^180-251 peptide [1],molar excess that completely blocked binding of FGF23^28-251 to the FGFR-Klotho complex (FGF23^28-251 1 nM) [fold molar excess]
CSCC[C@H](NC(=O)[C@H](CCCNC(=N)N)NC(=O)[C@H](C)NC(=O)[C@H](CCCNC(=N)N)NC(=O)[C@@H]1CCCN1C(=O)[C@H](CCCCN)NC(=O)[C@H](CC(C)C)NC(=O)[C@@H](NC(=O)[C@H](CC(N)=O)NC(=O)[C@H](CC(C)C)NC(=O)[C@@H]1CCCN1C(=O)[C@H](CC(=O)O)NC(=O)[C@H](CCCNC(=N)N)NC(=O)[C@H](CCC(=O)O)NC(=O)[C@H](CO)NC(=O)[C@H](CC(=O)O)NC(=O)[C@H](CC(=O)O)NC(=O)[C@H](CCC(=O)O)NC(=O)[C@H](C)NC(=O)[C@@H](N)CO)C(C)C)C(=O)N[C@H](C(=O)N1CCC[C@H]1C(=O)N[C@@H](C)C(=O)N1CCC[C@H]1C(=O)N[C@@H](C)C(=O)N[C@@H](CO)C(=O)O)[C@@H](C)O [FGF23^180-205] (H-SAEDDSERDPLNVLKPRARMTPAPAS-OH; N-terminus and C-terminus assumed),able to inhibit binding; also recorded: inhibited co-precipitation,over 100 fold,–
"FGF23^180-251: 72-amino acid C-terminal tail of human FGF23 (S180 to I251), expressed in E. coli (protein, listed as Homo sapiens) SAEDDSERDPLNVLKPRARMTPAPASCSQELPSAEDNSPMASDPLGVVRGGRVNTHAGGTGPEGCRPFAKFI",can inhibit binding,–,76
